The values that follow come from PMC10726475, “Atypical N-Alkyl to N-Noralkoxy Switch in a Dual cSRC/BCR-ABL1 Kinase Inhibitor Improves Drug Efflux and hERG Affinity” (ACS Medicinal Chemistry Letters, 2023).

Values after ≈ are worked out from the molar mass of the structure shown. Where two headings read alike, the source gives them in different places.

Data set [1] relates to Molt-4 cells. Nature of the data set: Cell viability assay (CellTiter-Glo), Molt-4. Type of data set: cell-based, human. The settings on record: BCR-ABL1 negative.
Data set [2] concerns KU812 cells. Nature of the data set: Cell viability assay (CellTiter-Glo), KU812. Type of data set: cell-based, human. The settings on record: read-out: IC50 (72 h), KU812 Cell Line, mean ± SEM, n = 3, unadjusted for FBS.
The subject of data set [3] is SUP-B15 cells. Nature of the data set: Cell viability assay (CellTiter-Glo), SUP-B15. The settings on record: read-out: IC50 (72 h), SUP-B15 Cell Line, mean ± SEM, n = 3, unadjusted for FBS. Type of data set: cell-based, human. Background: In ATP-based viability assays light output follows the ATP content of the culture.
For data set [4], the system named is MEG-01 cells. The data set is described as follows: Cell viability assay (CellTiter-Glo), MEG-01. The settings on record: read-out: IC50 (72 h), MEG-01 Cell Line, mean ± SEM, n = 3, unadjusted for FBS. In kind it is cell-based, human.
The nature of data set [5]: in vitro. The settings on record: human, Caco-2.
Data set [6] relates to Caco-2 cells. Nature of the data set: Caco-2 cell permeability. For orientation: Caco-2 monolayers are a common model of the intestinal barrier.
Data set [7] concerns MDCKII-MDR1 cells. The settings on record: dog, MDCK-MDR1.
Excerpt: (§1) Abbreviations: Papp, apparent permeability; AP, apical; BL, basolateral.
For data set [8], the system named is P-gp (MDR1). The data set is described as follows: in vitro. The settings on record: dog, MDCK-MDR1.
Excerpt: as §1
The target in data set [9] is CYP2D6 (Homo sapiens, UniProt P10635). Nature of the data set: in vitro. The settings on record: both, microsomes, CYP2D6 Inhibition percentage(%) at Top conc.
Data set [10] in a line: Solubility in aqueous buffer at pH 7.4. Type of data set: physicochemical. The settings on record: aqueous buffer at pH 7.4, n = 1; read-out: aq sol.
For data set [11], the system named is MDCKII-MDR1 cells. Nature of the data set: MDCKII-MDR1 cell permeability.
Excerpt: as §1
Data set [12] in a line: Plasma protein binding by equilibrium dialysis, rat. In kind it is in vitro ADME. The settings on record: for fu, plasma % / %Unbound: 5 μM, equilibrium dialysis. In general terms: In equilibrium dialysis only unbound substance equilibrates across the membrane.
Excerpt: (§2) Human plasma (mixed gender) Ltd-People’s Hospital of Shandong Weifang Hi-
(§3) Tech Industrial Development Zone (Batch No. P-
(§4) Rat plasma (SD/mixed gender) BiolVT (Batch No. RAT501985)
(§5) Mouse plasma (CD-1/mixed gender) IPHASE or BiolVT (Batch No. MSE427337)
A short description of data set [13]: Plasma protein binding by equilibrium dialysis, human. Type of data set: in vitro ADME.
Excerpt: as §2, §3, §4, §5
Data set [14] is described as follows: logD7.4 by shake-flask method. In kind it is physicochemical. The settings on record: pH 7.4.
Data set [15] can be described thus: Metabolic stability in rat hepatocytes. In kind it is in vitro ADME.
Details of data set [16]: method as in NDA application no. 203341 Pharmacology Review(s) page 40. The settings on record: nude mice, 50 mg/kg po and 5 mg/kg iv dosing, ref NDA application no. 203341 Pharmacology Review(s) page 40; cited from earlier work.
Data set [17] is described as follows: Metabolic stability in human hepatocytes. Type of data set: in vitro ADME.
Data set [18] is described as follows: Metabolic stability in human liver microsomes. Type of data set: in vitro ADME.
Data set [19] can be described thus: Metabolic stability in rat liver microsomes. In kind it is in vitro ADME.

CYP2D6, sequence (P10635 whole entry): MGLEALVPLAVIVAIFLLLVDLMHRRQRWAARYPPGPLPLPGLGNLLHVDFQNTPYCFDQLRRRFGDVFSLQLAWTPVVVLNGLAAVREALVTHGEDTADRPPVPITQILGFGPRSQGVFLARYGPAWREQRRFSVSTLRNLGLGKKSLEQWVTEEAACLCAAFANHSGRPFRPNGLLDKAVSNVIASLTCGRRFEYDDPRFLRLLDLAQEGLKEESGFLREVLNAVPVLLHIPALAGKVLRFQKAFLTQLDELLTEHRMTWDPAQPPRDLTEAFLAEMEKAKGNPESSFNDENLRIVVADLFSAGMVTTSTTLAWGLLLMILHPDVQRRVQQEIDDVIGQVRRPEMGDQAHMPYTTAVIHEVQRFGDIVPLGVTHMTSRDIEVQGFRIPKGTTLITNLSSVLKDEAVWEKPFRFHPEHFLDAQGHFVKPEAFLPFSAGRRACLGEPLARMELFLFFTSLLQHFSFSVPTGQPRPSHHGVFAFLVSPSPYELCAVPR

For the compound `N.N.[Cl][Pt][Cl]` [Cisplatin, cisplatin], the IC50 – broadly, the point on the concentration scale where inhibition reaches its midpoint – in data set [1] (read-out: IC50 (72 h), Molt-4 Cell Line, 72 h) came to 1340 ± 89 nM; in data set [2], 1500 ± 103 nM; in data set [3], 987 ± 36 nM; in data set [4], 5100 ± 318 nM.

Turning to `COCCc1ccc(OCC(O)CNC(C)C)cc1` (stereo not shown) [Metoprolol], in data set [5], the apparent permeability from apical to basolateral (Papp A→B) (usually how fast a substance crosses the layer from the apical side) at 2 h, 5 μM worked out at 23.1 ×10⁻⁶ cm/s; the apparent permeability from basolateral to apical (Papp B→A) (commonly how fast a substance crosses the layer from the basolateral side) at 2 h, 5 μM came out at 21.8 ×10⁻⁶ cm/s; the efflux ratio (in general, a quotient of directional permeabilities that is used to spot active efflux) at 2 h, 5 μM was determined as 0.95; the recovery worked out at 106%. Also, the “Recovery% (BL-AP)” value in data set [6] is listed as 100.41%. Besides, the “Recovery% (BL-AP)” value in data set [7] stood at 96.11%. In addition, in data set [8], the apical-to-basolateral permeability (Papp A→B) at 2 h, 1 μM was determined as 27.9 ×10⁻⁶ cm/s; the basolateral-to-apical permeability (Papp B→A) at 2 h, 1 μM amounted to 31 ×10⁻⁶ cm/s; the efflux ratio at 2 h, 1 μM was 1.11; the recovery stood at 99.9%.

`Fc1ccc([C@@H]2CCNC[C@H]2COc2ccc3c(c2)OCO3)cc1` [Paroxetine]: in data set [9], the inhibition – broadly, the drop in the measured response relative to a control, in per cent – at 20 min worked out at 91.7%.

In the case of `COc1cc(Nc2c(C#N)cnc3cc(OCCCN4CCN(C)CC4)c(OC)cc23)c(Cl)cc1Cl` [bosutinib], the solubility in data set [10] is on record as 14 µM (≈ 7.43 µg/mL). The concentration for half-maximal inhibition (IC50) in data set [1] (Homo sapiens, MOLT-4, read-out: IC50, Molt-4) is greater than 2000 nM. Moreover, the entries for the “Recovery% (BL-AP)” value in data set [11] and in data set [6] were 65.52% and 70.73%, respectively. The “fu, plasma % / %Unbound” value was 7.2% in data set [12]; 7.20% in data set [12] (listed as Bosutinib); 4.53% in [13] (5 μM, equilibrium dialysis). In addition, the recovery came out at 91.1% in data set [12] (both sexes, SD); 94% in data set [13] (both sexes); 56% in data set [8]. Also, the share remaining (in general, what is left of the initial amount, in per cent) at 6 h, 5 μM in [12] (both sexes, SD) was found to be 90.7%. For the same compound, the fraction unbound at 5 μM in data set [12] (both sexes, SD, read-out: fu, plasma % / %Unbound (converted)) was 0.072; in data set [13] (both sexes, read-out: %Bound (converted)) it was 0.0453. In data set [13] (both sexes, 5 μM, equilibrium dialysis, read-out: fu, plasma % / %Unbound), the fraction unbound at 6 h, 5 µM came to 0.045. Further, the log distribution coefficient (logD) (usually the decadic logarithm of the distribution of all forms, ionised or not, between an organic phase and buffer at a given pH) at 2 h in data set [14] was 3.1. Further, the “Remaining Percentages, 0.5 min” value in [15] and in [17] was 100.00% throughout. The “Remaining Percentages, 15 min” value in data set [15] is on record as 50.17%; in data set [17] it was 73.99%. Moreover, the “Remaining Percentages, 30 min” value in data set [15] was 21.78%; in [17] it was 79.28%. The “Remaining Percentages, 60 min” value in data set [15] is recorded as 5.83%; in [17], 53.95%. Besides, the “Remaining Percentages, 90 min” value in [15] is given as 1.83%; in [17], 34.15%. Further, the “Remaining Percentages, 120 min” value in [15] is recorded as 0.73%; in data set [17], 20.73%. Also, the half-life – broadly, how long it takes for the measured level to halve – at 2 h in data set [15] (male, SD) is 13.4 min; in data set [17] (both sexes) it was 54.9 min. Besides, the hepatocyte CLint (commonly a measure of how fast metabolising enzymes remove a compound, apart from limits set by blood flow) at 2 h in data set [15] (male, SD) worked out at 103 µL/min/1e6 cells; in data set [17] (both sexes), 25.3 µL/min/1e6 cells. Besides, the AUCinf in [16] was 11 677 h·nM. Besides, the maximum concentration (Cmax) – broadly, the highest concentration seen after dosing – in data set [16] was 1510 nM. Moreover, the “Remaining Percentage, 0.5 min” value in data set [18] (+Cofactors), in data set [18] (-Cofactors), in [19] (+Cofactors) and in data set [19] (-Cofactors) was 100.00% in each case. Besides, the “Remaining Percentage, 15 min” value turned out to be 12.40% in data set [18] (+Cofactors) and 14.79% in [19] (+Cofactors). In addition, the “Remaining Percentage, 30 min” value in data set [18] (+Cofactors) is 2.94%; in data set [19] (+Cofactors) it was 5.02%. In addition, the “Remaining Percentage, 45 min” value in data set [18] (+Cofactors) is recorded as 1.16%; in data set [19] (+Cofactors) it was 2.62%. Also, the “Remaining Percentage, 60 min” value in data set [18] (+Cofactors) is “BLOD”; in data set [18] (-Cofactors), 91.23%. The half-life at 1 h in [18] (both sexes, pooled) came to 4.8 min; in data set [19] (male, SD, pooled), 5.3 min. The microsomal CLint at 1 h was 288 µL/min/mg in data set [18] (both sexes, pooled, read-out: LMClint) and 264 µL/min/mg in data set [19] (male, SD, pooled, read-out: LMClint).
